We go through three molecules from patent publication US7598382B2, “Aryl substituted imidazoquinolines” (Coley Pharmaceutical Group, Inc., priority 2002, dated 2009).

Series [1] concerns tumor necrosis factor-α (TNF-α) production in mouse macrophage cell line Raw 264.7. In words: TNF-α inhibition in mouse cells, single concentration assay (LPS-stimulated Raw 264.7). The settings on record: Raw 264.7 cells stimulated by LPS (EC70), compound 5 μM (single concentration) or 0.03-10 μM (dose response), 18 to 24 hours, ELISA. It counts as cell-based. The method, then: The compounds of Formulas I and II are useful as immune response modifiers (IRMs) due to their ability to modulate cytokine biosynthesis (e.g., induce or inhibit the biosynthesis or production of one or more cytokines) and otherwise modulate the immune response when administered to animals. Compounds can be tested per the test procedures described in the Examples Section. Compounds can be tested for induction of cytokine biosynthesis by incubating human PBMC in a culture with the compound(s) at a concentration range of 30 to 0.014 μM and analyzing for interferon (α) or tumor necrosis factor (α) in the culture supernatant. Compounds can be tested for inhibition of cytokine biosynthesis by incubating mouse macrophage cell line Raw 264.7 in a culture with the compound(s) at a single concentration of, for example, 5 μM and analyzing for tumor necrosis factor (α) in the culture supernatant. Compounds can be further tested for dose response by running the test at several compound concentrations, for example, 0.03, 0.1, 0.3, 1, 3, 5, and 10 μM. The ability to modulate cytokine biosynthesis makes the compounds useful in the treatment of a variety of conditions such as viral diseases, neoplastic diseases, and autoimmune diseases that are responsive to such changes in the immune response.
The mouse macrophage cell line Raw 264.7 is used to assess the ability of compounds to inhibit tumor necrosis factor-α (TNF-α) production upon stimulation by lipopolysaccharide (LPS).
Raw cells (ATCC) are harvested by gentle scraping and then counted. The cell suspension is brought to 3×10^5 cells/mL in RPMI with 10% fetal bovine serum (FBS). […]
The compounds are solubilized in dimethyl sulfoxide (DMSO). […] LPS (Lipopolysaccaride from Salmonella typhimurium, Sigma-Aldrich) is diluted with colorless RPMI to the EC70 concentration as measured by a dose response assay. […]
Following the incubation the supernatant is removed with a pipet. TNF-α concentration is determined by ELISA using a mouse TNF-α kit (from Biosource International, Camarillo, Calif.). […]
Background: ELISA stands for enzyme-linked immunosorbent assay.

Broadly, the melting point is the temperature of the solid-liquid transition. Regarding `CC(C)Cn1cnc2c(N)nc3ccc(-n4cccc4)cc3c21` [Example 481, 1-(2-Methylpropyl)-8-(1-pyrrolyl)-1H-imidazo[4,5-c]quinolin-4-amine], the melting point was 227.5 to 231.5 °C. The “modulate cytokine biosynthesis by inhibiting production of tumor necrosis factor α (TNF-α)” value in series [1] is reported as “inhibiting production of tumor necrosis factor α (TNF-α)”.
`CC(C)Cn1cnc2c(N)nc3ccc(-c4ccccc4)cc3c21` [Example 15, 1-Isobutyl-8-phenyl-1H-imidazo[4,5-c]quinolin-4-amine] had a melting point of 203 to 204 °C. For the same molecule, the “modulate cytokine biosynthesis by inhibiting production of tumor necrosis factor α (TNF-α)” value in series [1] was “inhibiting production of tumor necrosis factor α (TNF-α)”.
`CC(C)Cn1cnc2c(N)nc3ccc(-c4cccnc4)cc3c21` [Example 14, 1-Isobutyl-8-(pyridin-3-yl)-1H-imidazo[4,5-c]quinolin-4-amine] gave a melting point of 244 to 246 °C. For the same molecule, the “modulate cytokine biosynthesis by inhibiting production of tumor necrosis factor α (TNF-α)” value in series [1] is listed as “inhibiting production of tumor necrosis factor α (TNF-α)”.
